Data taken from US20250275540A1, “USE OF PROTOPORPHYRINOGEN OXIDASE” (BEIJING DABEINONG BIOTECHNOLOGY CO., LTD., priority 2022, published 2025).

Tested on: transgenic soybean plants
Assay: Detection of the herbicide tolerance of the transgenic soybean plants
Type: in vivo
Settings: for The grade of pesticide damage/plant: 0 / The grade of pesticide damage/plant: 1 / The grade of pesticide damage/plant: 2 / The grade of pesticide damage/plant: 3: 7 DAT
[1] = genotype Control vector, 120 g ai/ha
[2] = genotype Control vector, 240 g ai/ha
[3] = genotype PPO-AP-01, 120 g ai/ha
[4] = genotype PPO-AP-01, 240 g ai/ha
[5] = genotype PPO-EC-01, 120 g ai/ha
[6] = genotype PPO-EC-01, 240 g ai/ha

C#CCN1C(=O)COc2cc(F)c(N3C(=O)C4=C(CCCC4)C3=O)cc21 [flumioxazin, 2-[7-fluoro-3,4-dihydro-3-oxo-4-(2-propynyl)-2H-1,4-benzoxazin-6-yl]-4,5,6,7-tetrahydro-1H-isoindole-1,3(2H)-dione]
The grade of pesticide damage/plant: 0 (genotype CK, 120 g ai/ha): 0 plant | The grade of pesticide damage/plant: 1 (genotype CK, 120 g ai/ha): 0 plant | The grade of pesticide damage/plant: 2 (genotype CK, 120 g ai/ha): 0 plant | The grade of pesticide damage/plant: 3 (genotype CK, 120 g ai/ha): 16 plant | The grade of pesticide damage/plant: 0 (genotype CK, 240 g ai/ha): 0 plant | The grade of pesticide damage/plant: 1 (genotype CK, 240 g ai/ha): 0 plant | The grade of pesticide damage/plant: 2 (genotype CK, 240 g ai/ha): 0 plant | The grade of pesticide damage/plant: 3 (genotype CK, 240 g ai/ha): 16 plant | The grade of pesticide damage/plant: 0 [1]: 0 plant | The grade of pesticide damage/plant: 1 [1]: 0 plant | The grade of pesticide damage/plant: 2 [1]: 0 plant | The grade of pesticide damage/plant: 3 [1]: 16 plant | The grade of pesticide damage/plant: 0 [2]: 0 plant | The grade of pesticide damage/plant: 1 [2]: 0 plant | The grade of pesticide damage/plant: 2 [2]: 0 plant | The grade of pesticide damage/plant: 3 [2]: 16 plant | The grade of pesticide damage/plant: 0 [3]: 0 plant | The grade of pesticide damage/plant: 1 [3]: 0 plant | The grade of pesticide damage/plant: 2 [3]: 0 plant | The grade of pesticide damage/plant: 3 [3]: 16 plant | The grade of pesticide damage/plant: 0 [4]: 0 plant | The grade of pesticide damage/plant: 1 [4]: 0 plant | The grade of pesticide damage/plant: 2 [4]: 0 plant | The grade of pesticide damage/plant: 3 [4]: 16 plant | tolerance to the herbicide (in words) (genotype PPO-AP-01, at different concentrations): no flumioxazin tolerance | The grade of pesticide damage/plant: 0 [5]: 16 plant | The grade of pesticide damage/plant: 1 [5]: 0 plant | The grade of pesticide damage/plant: 2 [5]: 0 plant | The grade of pesticide damage/plant: 3 [5]: 0 plant | The grade of pesticide damage/plant: 0 [6]: 15 plant | The grade of pesticide damage/plant: 1 [6]: 1 plant | The grade of pesticide damage/plant: 2 [6]: 0 plant | The grade of pesticide damage/plant: 3 [6]: 0 plant | The grade of pesticide damage/plant: 0 (genotype PPOA-01, 120 g ai/ha): 16 plant | The grade of pesticide damage/plant: 1 (genotype PPOA-01, 120 g ai/ha): 0 plant | The grade of pesticide damage/plant: 2 (genotype PPOA-01, 120 g ai/ha): 0 plant | The grade of pesticide damage/plant: 3 (genotype PPOA-01, 120 g ai/ha): 0 plant | The grade of pesticide damage/plant: 0 (genotype PPOA-01, 240 g ai/ha): 14 plant | The grade of pesticide damage/plant: 1 (genotype PPOA-01, 240 g ai/ha): 2 plant | The grade of pesticide damage/plant: 2 (genotype PPOA-01, 240 g ai/ha): 0 plant | The grade of pesticide damage/plant: 3 (genotype PPOA-01, 240 g ai/ha): 0 plant | The grade of pesticide damage/plant: 0 (genotype PPOB-01, 120 g ai/ha): 16 plant | The grade of pesticide damage/plant: 1 (genotype PPOB-01, 120 g ai/ha): 0 plant | The grade of pesticide damage/plant: 2 (genotype PPOB-01, 120 g ai/ha): 0 plant | The grade of pesticide damage/plant: 3 (genotype PPOB-01, 120 g ai/ha): 0 plant | The grade of pesticide damage/plant: 0 (genotype PPOB-01, 240 g ai/ha): 15 plant | The grade of pesticide damage/plant: 1 (genotype PPOB-01, 240 g ai/ha): 1 plant | The grade of pesticide damage/plant: 2 (genotype PPOB-01, 240 g ai/ha): 0 plant | The grade of pesticide damage/plant: 3 (genotype PPOB-01, 240 g ai/ha): 0 plant | The grade of pesticide damage/plant: 0 (genotype PPOC-01, 120 g ai/ha): 16 plant | The grade of pesticide damage/plant: 1 (genotype PPOC-01, 120 g ai/ha): 0 plant | The grade of pesticide damage/plant: 2 (genotype PPOC-01, 120 g ai/ha): 0 plant | The grade of pesticide damage/plant: 3 (genotype PPOC-01, 120 g ai/ha): 0 plant | The grade of pesticide damage/plant: 0 (genotype PPOC-01, 240 g ai/ha): 16 plant | The grade of pesticide damage/plant: 1 (genotype PPOC-01, 240 g ai/ha): 0 plant | The grade of pesticide damage/plant: 2 (genotype PPOC-01, 240 g ai/ha): 0 plant | The grade of pesticide damage/plant: 3 (genotype PPOC-01, 240 g ai/ha): 0 plant | The grade of pesticide damage/plant: 0 (genotype PPOD-01, 120 g ai/ha): 16 plant | The grade of pesticide damage/plant: 1 (genotype PPOD-01, 120 g ai/ha): 0 plant | The grade of pesticide damage/plant: 2 (genotype PPOD-01, 120 g ai/ha): 0 plant | The grade of pesticide damage/plant: 3 (genotype PPOD-01, 120 g ai/ha): 0 plant | The grade of pesticide damage/plant: 0 (genotype PPOD-01, 240 g ai/ha): 16 plant | The grade of pesticide damage/plant: 1 (genotype PPOD-01, 240 g ai/ha): 0 plant | The grade of pesticide damage/plant: 2 (genotype PPOD-01, 240 g ai/ha): 0 plant | The grade of pesticide damage/plant: 3 (genotype PPOD-01, 240 g ai/ha): 0 plant | The grade of pesticide damage/plant: 0 (genotype PPOE-01, 120 g ai/ha): 16 plant | The grade of pesticide damage/plant: 1 (genotype PPOE-01, 120 g ai/ha): 0 plant | The grade of pesticide damage/plant: 2 (genotype PPOE-01, 120 g ai/ha): 0 plant | The grade of pesticide damage/plant: 3 (genotype PPOE-01, 120 g ai/ha): 0 plant | The grade of pesticide damage/plant: 0 (genotype PPOE-01, 240 g ai/ha): 15 plant | The grade of pesticide damage/plant: 1 (genotype PPOE-01, 240 g ai/ha): 1 plant | The grade of pesticide damage/plant: 2 (genotype PPOE-01, 240 g ai/ha): 0 plant | The grade of pesticide damage/plant: 3 (genotype PPOE-01, 240 g ai/ha): 0 plant | The grade of pesticide damage/plant: 0 (genotype PPOF-01, 120 g ai/ha): 16 plant | The grade of pesticide damage/plant: 1 (genotype PPOF-01, 120 g ai/ha): 0 plant | The grade of pesticide damage/plant: 2 (genotype PPOF-01, 120 g ai/ha): 0 plant | The grade of pesticide damage/plant: 3 (genotype PPOF-01, 120 g ai/ha): 0 plant | The grade of pesticide damage/plant: 0 (genotype PPOF-01, 240 g ai/ha): 14 plant | The grade of pesticide damage/plant: 1 (genotype PPOF-01, 240 g ai/ha): 2 plant | The grade of pesticide damage/plant: 2 (genotype PPOF-01, 240 g ai/ha): 0 plant | The grade of pesticide damage/plant: 3 (genotype PPOF-01, 240 g ai/ha): 0 plant | tolerance to the herbicide (in words) (genotypes PPOA-01 to PPOF-01 and PPO-EC-01, at different concentrations): high-resistant tolerance
